This note sets out measurements from US20220185818A1, “PYRROLOHETEROCYCLIC DERIVATIVE, PREPARATION METHOD THEREFOR, AND APPLICATION THEREOF IN MEDICINE” (Jiangsu Hengrui Medicine Co., Ltd., priority 2019, published 2022).

Data set [1] deals with Colo205 cells. Nature of the data set: In vitro proliferation inhibition test on Colo205 tumor cells (CellTiter-Glo). Type of data set: cell-based. The following applies: Homo sapiens, COLO 205, 72 h; 3 days of culture, CTG; read-out: IC50 value of the inhibition on in vitro Colo205 tumor cell proliferation. On the procedure: The purpose of this experiment is to test the inhibitory activity of the compounds on the proliferation of Colo205 cells (CCL-222, ATCC) in vitro. The cells were treated in vitro with different concentrations of the compounds. After 3 days of culture, the cell proliferation was tested with CTG (CellTiter-Glo® Luminescent Cell Viability Assay, Promega, Catalog No. G7573) reagent, and the in vitro activity of the compounds was evaluated according to the IC50 value.
In the following, taking the in vitro proliferation inhibition test method of Colo205 cells as an example, the method in the present disclosure for testing the in vitro proliferation inhibitory activity of the compounds of the present disclosure is described. This method is also applicable to, but not limited to, the in vitro proliferation inhibitory activity test on other tumor cells.
Colo205 cells were digested, centrifuged and then resuspended. The single cell suspension was mixed well, and the density of viable cells was adjusted to 5.0×10^4 cells/ml with cell culture medium (RPMI1640+2% FBS), and 95 μl/well was added to a 96-well cell culture plate. Only 100 μl medium was added to the peripheral wells of the 96-well plate. The culture plate was incubated in an incubator for 24 hours (37° C., 5% CO2).
The compound was dissolved in DMSO and prepared into a stock solution with an initial concentration of 20 mM. The initial concentration of the small molecule compound was 2 mM, and then 4-fold diluted into 9 points, and the 10th point is DMSO. Another 96-well plate was taken and 90 μl of cell culture medium (RPMI1640+2% FBS) was added to each well, then 10 μl of different concentrations of the test sample was added to each well. The mixture was mixed well, and then 5 μL of different concentrations of the test sample was added to the cell culture plate with duplicate well for each sample. The culture plate was incubated in an incubator for 3 days (37° C., 5% CO2). The 96-well cell culture plate was taken out, 50 μL CTG solution was added to each well, and the plate was incubated for 10 minutes at room temperature. In a microplate reader (BMG labtech, PHERAstar FS), chemiluminescence was measured with the microplate reader.
(§1) Microsoft Excel, Graphpad Prism 5 was used to process and analyze the data.
(In general: ATP-based viability assays read luminescence as a measure of living cells.)

The target in data set [2] is T1, ERK2 (Homo sapiens, UniProt P28482).
T1 construct: purchased R&D 1879-KS-010
Nature of the data set: ERK2 enzyme activity test (ADP-Glo Kinase Assay). Type of data set: biochemical. The following applies: read-out: IC50 value of the inhibition on ERK2 enzyme activity. On the procedure:
(§2) The purpose of this experiment is to detect the inhibitory ability of the compounds on the ERK2 enzyme activity, and evaluate the in vitro activity of the compounds based on the IC50. The ADP-Glo™ Kinase Assay Kit is used in this experiment. Under the action of the enzyme, the substrate is phosphorylated and ADP is produced at the same time. The ADP-Glo reagent is added to remove the unreacted ATP in the reaction system, and the ADP produced by the reaction is detected by the kinase detection reagent. In the presence of the compound, the inhibition rate of the compound is calculated by measuring the signal value.
(§3) ATP was diluted to 500 μM with the buffer. The compound was dissolved in DMSO to prepare a stock solution with an initial concentration of 20 mM, and then Bravo (SGC120TH34702, Agilent Technologies) was used to dilute the stock solution to desired concentrations. Finally, a 3 μL of a mixed solution of enzyme and substrate, and 1 μL of different concentrations of the compound (the initial concentration is 50 μM, 4-fold dilution) were added to each well of the 384-well plate, and the plate was incubated at 30° C. for 10 minutes, and finally 1 μL of 500 μM ATP solution was added to each well, and the plate was incubated at 30° C. for 2 hours. Then 5 μL of ADP-Glo was added, and the plate was incubated at 30° C. for 40 minutes. Then 10 μL of kinase detection buffer was added, and the plate was incubated at 30° C. for 40 minutes. The 384-well plate was taken out and placed in a microplate reader (BMG labtech, PHERAstar FS), and the chemiluminescence was measured by the microplate reader.
as §1

In data set [3] the target is T2, ERK1 (Homo sapiens, UniProt P27361).
T2 construct: purchased R&D 1879-KS-010
Nature of the data set: ERK1 enzyme activity test (ADP-Glo Kinase Assay). Type of data set: biochemical. Particulars: read-out: IC50 value of the inhibition on ERK1 enzyme activity. On the procedure:
as §2, with “the ERK1” for “the ERK2”, “detected with” for “detected by”
as §3, with “diluted to 300 μM with” for “diluted to 500 μM with”, “Finally, a […] of” for “Finally, a 3 μL of”, “and 1 μL, of different” for “and 1 μL of different”, “μL of 300 μM ATP” for “μL of 500 μM ATP”, “μL of Kinase detection buffer” for “μL of kinase detection buffer”
as §1

Data set [4] in a line: Pharmacokinetics assay in mice. In kind it is in vivo. Particulars: female, mouse, po, C57 mice, intragastrical administration, 2 mg/kg, plasma; for Vd/F: read-out: Apparent distribution volume Vz/F; for AUC: read-out: Area under curve AUC; for CL/F: read-out: Clearance CLz/F; for half-life: read-out: Half-life T1/2 (converted); for Cmax: read-out: Plasma concentration Cmax; for MRT: read-out: Residence time MRT. How it is done: Mice were used as test animals. […] The pharmacokinetic behavior of the compounds of the present disclosure was studied in mice, and the pharmacokinetic characteristics were evaluated.
2.2 Test Animals Thirty-six C57 mice (female, equally divided into 4 groups) were purchased from Shanghai Jiesijie Laboratory Animal Co., LTD.
A certain amount of the test compound was weighed and dissolved by the addition of 5% of DMSO and 5% of tween 80. Then 90% of normal saline were added to prepare a 0.1 mg/mL colorless, clear and transparent solution.
After an overnight fast, C57 mice were intragastrically administered the test compound at a dosage of 2 mg/kg and a volume of 0.2 ml/10 g.
The mice were intragastrically administered the test compounds. 0.1 ml of blood was taken before the administration and at 0.25, 0.5, 1.0, 2.0, 4.0, 6.0, 8.0, 11.0 and 24.0 hours after the administration. The samples were stored in heparinized tubes, and centrifuged for 10 minutes at 3500 rpm to separate the blood plasma. The plasma samples were stored at −20° C.
The content of the test compound in the plasma of mice after intragastrical administration of the test compound at different concentrations was determined: 25 μL of […] plasma at each time point after the administration was taken, followed by the addition of 50 μL of the internal standard camptothecin solution (National Institutes for Food and Drug Control of China) and 200 μL of acetonitrile. The resulting solution was vortex-mixed for 5 minutes, and centrifuged for 10 minutes (4000 rpm). 4 μL of the supernatant was taken from the plasma samples for LC/MS/MS analysis.

T1 sequence (P28482 2-360 limits assumed): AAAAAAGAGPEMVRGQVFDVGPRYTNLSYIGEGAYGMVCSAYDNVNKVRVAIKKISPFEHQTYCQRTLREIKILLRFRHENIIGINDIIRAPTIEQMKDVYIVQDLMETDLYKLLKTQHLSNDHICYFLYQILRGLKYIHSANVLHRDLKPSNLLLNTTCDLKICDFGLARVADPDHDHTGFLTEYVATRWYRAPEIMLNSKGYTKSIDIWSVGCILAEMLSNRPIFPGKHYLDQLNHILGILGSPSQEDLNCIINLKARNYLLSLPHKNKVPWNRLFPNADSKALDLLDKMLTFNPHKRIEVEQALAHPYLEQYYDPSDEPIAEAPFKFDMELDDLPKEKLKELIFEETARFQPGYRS
T2 sequence (P27361 whole entry): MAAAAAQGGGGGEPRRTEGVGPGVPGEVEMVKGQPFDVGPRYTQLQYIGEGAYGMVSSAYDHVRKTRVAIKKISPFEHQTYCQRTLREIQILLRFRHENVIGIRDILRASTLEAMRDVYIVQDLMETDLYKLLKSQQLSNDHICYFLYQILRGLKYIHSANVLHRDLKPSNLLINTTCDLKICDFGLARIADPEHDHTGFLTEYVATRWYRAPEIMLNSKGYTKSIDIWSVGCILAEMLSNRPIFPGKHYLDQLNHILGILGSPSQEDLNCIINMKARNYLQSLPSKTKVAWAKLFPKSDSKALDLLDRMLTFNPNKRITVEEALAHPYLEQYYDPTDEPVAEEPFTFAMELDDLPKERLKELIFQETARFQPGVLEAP

With `Cn1nccc1Nc1nccc(-c2cc3n(c2)C(=O)N([C@H](CO)c2ccc(Cl)c(F)c2)C3)n1` [Example 20, (S)-2-(1-(3-Fluoro-4-chlorophenyl)-2-hydroxyethyl)-6-(2-((1-methyl-1H-pyrazol-5-yl)amino)pyrimidin-4-yl)-1H-pyrrolo[1,2-c]imidazol-3(2H)-one], the IC50 in data set [1] is 68 nM. The IC50 in data set [2] stood at 18 nM. For the same molecule, the IC50 in data set [3] turned out to be 30 nM. Further, in data set [4], the Vd/F was determined as 1.41 L/kg; the AUC (in general, concentration integrated over time) came out at 7630 ng·h/mL; the CL/F came to 4.37 mL/min/kg; the half-life was 224 min. Moreover, in data set [4], the Cmax turned out to be 1540 ng/mL and the mean residence time (MRT) (commonly the average time that molecules of a dose stay in the body) was 4.95 h.
In the case of `Cc1cccc([C@@H](CO)N2Cc3cc(-c4ccnc(Nc5ccnn5C)n4)cn3C2=O)c1` [Example 15, (S)-2-(2-Hydroxy-1-(m-tolyl)ethyl)-6-(2-((1-methyl-1H-pyrazol-5-yl)amino)pyrimidin-4-yl)-1H-pyrrolo[1,2-c]imidazol-3(2H)-one], the IC50 in data set [1] was 55 nM. Besides, the IC50 in data set [2] worked out at 5 nM. Moreover, in data set [3], the IC50 turned out to be 5 nM. For the same molecule, in data set [4], the Vd/F was 2.13 L/kg, the AUC came out at 3700 ng·h/mL, the CL/F turned out to be 9 mL/min/kg and the half-life is 164 min. Further, in data set [4], the Cmax came out at 816 ng/mL and the MRT amounted to 3.3 h.
In the case of `Cn1nccc1Nc1nccc(-c2cc3n(c2)C(=O)N([C@H](CO)c2cccc(Cl)c2)C3)n1` [Example 10, (S)-2-(1-(3-Chlorophenyl)-2-hydroxyethyl)-6-(2-((1-methyl-1H-pyrazol-5-yl)amino)pyrimidin-4-yl)-1,2-dihydro-3H-pyrrolo[1,2-c]imidazol-3-one], the IC50 in data set [1] came out at 62 nM. In addition, the IC50 in data set [2] amounted to 7 nM. Further, the IC50 in data set [3] stood at 5 nM. Moreover, in data set [4], the Vd/F came out at 3.07 L/kg, the exposure (AUC) was determined as 3440 ng·h/mL, the CL/F came out at 9.69 mL/min/kg and the half-life is 220 min. Further, in data set [4], the Cmax came to 1020 ng/mL and the MRT was found to be 3.47 h.
